# Patent US20150031102A1, “METHODS AND COMPOSITIONS FOR ENHANCED PRODUCTION OF BUTANOL BY CLOSTRIDIA” (Butrolix LLC, priority 2012, published 2015)
# Tested on: Clostridium acetobutylicum strain ATCC 824
# Experiment: Sequential batch transfer in 24-well culture plates (butanol, residual glucose, butanol yield and productivity)
# Assay type: cell-based
# Conditions: after 96 hours of culture; for Residual glucose concentration: initial glucose 60 g/L; for Butanol: Experiment 1
# Method: Each well contained 1.5 mL of growth medium. Peptide was added to each well at the indicated concentration (0, 25, 50, and 100 nM). Every 24 hours fresh medium and peptide treatment were added to a new column of wells then 1.5 μL of the previous day culture was transferred to the new well. Wells were harvested for glucose and butanol analysis after 96 hours of growth. Transfers 1, 4, 7, 10, 13, 16, […].
# Briefly, Clostridium spores were germinated in a suitable growth medium for 18-24 hours then […] was transferred to 1.5 mL of fresh medium in each of four wells on a 24-well culture plate. Three of the wells had been treated with 25 nM, 50 nM and 100 nM of peptide, respectively while the fourth well was untreated. Thereafter, every 24 hours […] of each subculture was transferred to 1.5 mL of fresh medium that contained the same peptide treatment or no treatment. Transfers of successive subcultures were done for 24 days, and each subculture was grown for 96 hours before being harvested. Culture supernatants were recovered following centrifugation and were analyzed for butanol and residual glucose concentrations. Determination of optimum peptide treatment levels was based on a graphical comparison of the concentration of butanol in each of the four culture wells for sequential transfers 1, 4, 7, 10, 13, 16, 19, 22 and 24.
# Clostridium acetobutylicum strain ATCC 824 was used in all experiments and the growth medium used for sequential batch transfer, time course, and continuous culture experiments contained yeast extract, casamino acids, L-cysteine, L-asparagine, phosphate buffer, trace minerals, and 6% glucose. What are believed to be quorum-sensing peptides that were used in the experiments were chemically synthesized peptides SEQ ID NO: 143 (amino acid sequence: SYPGWSW) and SEQ ID NO: 144 (amino acid sequence: ILILISG). Routine growth of the bacteria as well as the sequential batch and time course experiments were conducted in a Form a Scientific Model 1029 anaerobic gas chamber at 32° C. Continuous cultures were performed at 32° C. using duplicate New Brunswick Scientific BioFlo 3000 apparati with a dilution rate of 0.01 volume per hour, 75 rpm agitation, and nitrogen gas sparging. Optical density of culture samples was measured at 600 nm in a Beckman DU 600 series spectrophotometer and glucose was analyzed using a YSI Model 2700 Select Biochemistry Analyzer with internal glucose calibration. Butanol concentrations were determined by measuring experimental and standard samples using a Varian Saturn 3 Gas Chromatograph/Mass Spectrometer and calculating butanol concentrations using standard curves.
# (§1) Sequential batch transfer experiments were carried out in 24-well culture plates that contained 1.5 mL of medium per well. Peptide was added to each well at the indicated concentrations of 0 nM (control), 25 nM, 50 nM, or 100 nM. Every 24 hours, fresh medium and peptide treatments were added to a new column of wells. Then, 1.5 uL of the previous day culture was transferred to the new well. Wells were harvested for glucose and butanol analysis after 96 hours of growth; transfers 1, 4, 7, 10, 13, 16, 19, 22, and 24 were analyzed. Two representative experiments are shown in Tables 30 and 31 and FIGS. 14 and 15.
# as §1, with “32” for “30”, “33” for “31”, “16” for “14”, “17.” for “15.”
# [1] = 25 nM peptide, transfer 1, Expt. 2 (repeat)
# [2] = 25 nM peptide, transfer 4, Expt. 2 (repeat)
# [3] = 25 nM peptide, transfer 7, Expt. 2 (repeat)
# [4] = 25 nM peptide, transfer 10, Expt. 2 (repeat)
# [5] = 25 nM peptide, transfer 13, Expt. 2 (repeat)
# [6] = 25 nM peptide, transfer 16, Expt. 2 (repeat)
# [7] = 25 nM peptide, transfer 19, Expt. 2 (repeat)
# [8] = 25 nM peptide, transfer 22, Expt. 2 (repeat)
# [9] = 25 nM peptide, transfer 24, Expt. 2 (repeat)
# [10] = 25 nM, transfer 1, first experiment
# [11] = 25 nM, transfer 4, first experiment
# [12] = 25 nM, transfer 7, first experiment
# [13] = 25 nM, transfer 10, first experiment
# [14] = 25 nM, transfer 13, first experiment
# [15] = 25 nM, transfer 16, first experiment
# [16] = 25 nM, transfer 19, first experiment
# [17] = 25 nM, transfer 22, first experiment
# [18] = 25 nM, transfer 24, first experiment
# [19] = 50 nM peptide, transfer 1, Expt. 2 (repeat)
# [20] = 50 nM peptide, transfer 4, Expt. 2 (repeat)
# [21] = 50 nM peptide, transfer 7, Expt. 2 (repeat)
# [22] = 50 nM peptide, transfer 10, Expt. 2 (repeat)
# [23] = 50 nM peptide, transfer 13, Expt. 2 (repeat)
# [24] = 50 nM peptide, transfer 16, Expt. 2 (repeat)
# [25] = 50 nM peptide, transfer 19, Expt. 2 (repeat)
# [26] = 50 nM peptide, transfer 22, Expt. 2 (repeat)
# [27] = 50 nM peptide, transfer 24, Expt. 2 (repeat)
# [28] = 50 nM, transfer 1, first experiment
# [29] = 50 nM, transfer 4, first experiment
# [30] = 50 nM, transfer 7, first experiment
substance,measurement,setting,value
SYPGWSW [peptide SEQ ID NO: 143],Butanol concentration,[1],0.75 g/L
same,Butanol productivity,[1],0.01 g butanol/L-h
same,Butanol yield,[1],0.01 g butanol/g/glucose
same,Residual glucose concentration,[1],49.0 g/L
same,Butanol concentration,[2],1.40 g/L
same,Butanol productivity,[2],0.01 g butanol/L-h
same,Butanol yield,[2],0.02 g butanol/g/glucose
same,Residual glucose concentration,[2],43.5 g/L
same,Butanol concentration,[3],1.83 g/L
same,Butanol productivity,[3],0.02 g butanol/L-h
same,Butanol yield,[3],0.03 g butanol/g/glucose
same,Residual glucose concentration,[3],48.9 g/L
same,Butanol concentration,[4],2.93 g/L
same,Butanol productivity,[4],0.03 g butanol/L-h
same,Butanol yield,[4],0.05 g butanol/g/glucose
same,Residual glucose concentration,[4],43.9 g/L
same,Butanol concentration,[5],2.89 g/L
same,Butanol productivity,[5],0.03 g butanol/L-h
same,Butanol yield,[5],0.05 g butanol/g/glucose
same,Residual glucose concentration,[5],44.7 g/L
same,Butanol concentration,[6],6.32 g/L
same,Butanol productivity,[6],0.07 g butanol/L-h
same,Butanol yield,[6],0.11 g butanol/g/glucose
same,Residual glucose concentration,[6],39.1 g/L
same,Butanol concentration,[7],2.65 g/L
same,Butanol productivity,[7],0.03 g butanol/L-h
same,Butanol yield,[7],0.05 g butanol/g/glucose
same,Residual glucose concentration,[7],44.1 g/L
same,Butanol concentration,[8],6.86 g/L
same,Butanol productivity,[8],0.07 g butanol/L-h
same,Butanol yield,[8],0.12 g butanol/g/glucose
same,Residual glucose concentration,[8],0.1 g/L
same,Butanol concentration,[9],5.33 g/L
same,Butanol productivity,[9],0.06 g butanol/L-h
same,Butanol yield,[9],0.09 g butanol/g/glucose
same,Residual glucose concentration,[9],16.0 g/L
same,Butanol,"25 nM, transfer 1",1.21 g/L
same,Butanol productivity,[10],0.01 g butanol/L-h
same,Butanol yield,[10],0.02 g butanol/g/glucose
same,Residual glucose concentration,[10],45.3 g/L
same,Butanol,"25 nM, transfer 4",11.87 g/L
same,Butanol productivity,[11],0.12 g butanol/L-h
same,Butanol yield,[11],0.20 g butanol/g/glucose
same,Residual glucose concentration,[11],0.1 g/L
same,Butanol,"25 nM, transfer 7",9.09 g/L
same,Butanol productivity,[12],0.09 g butanol/L-h
same,Butanol yield,[12],0.15 g butanol/g/glucose
same,Residual glucose concentration,[12],0.1 g/L
same,Butanol,"25 nM, transfer 10",12.83 g/L
same,Butanol productivity,[13],0.13 g butanol/L-h
same,Butanol yield,[13],0.22 g butanol/g/glucose
same,Residual glucose concentration,[13],0.1 g/L
same,Butanol,"25 nM, transfer 13",9.97 g/L
same,Butanol productivity,[14],0.10 g butanol/L-h
same,Butanol yield,[14],0.17 g butanol/g/glucose
same,Residual glucose concentration,[14],0.1 g/L
same,Butanol,"25 nM, transfer 16",11.66 g/L
same,Butanol productivity,[15],0.12 g butanol/L-h
same,Butanol yield,[15],0.20 g butanol/g/glucose
same,Residual glucose concentration,[15],0.1 g/L
same,Butanol,"25 nM, transfer 19",4.37 g/L
same,Butanol productivity,[16],0.05 g butanol/L-h
same,Butanol yield,[16],0.07 g butanol/g/glucose
same,Residual glucose concentration,[16],48.1 g/L
same,Butanol,"25 nM, transfer 22",7.12 g/L
same,Butanol productivity,[17],0.07 g butanol/L-h
same,Butanol yield,[17],0.12 g butanol/g/glucose
same,Residual glucose concentration,[17],45.7 g/L
same,Butanol,"25 nM, transfer 24",5.06 g/L
same,Butanol productivity,[18],0.05 g butanol/L-h
same,Butanol yield,[18],0.08 g butanol/g/glucose
same,Residual glucose concentration,[18],48.5 g/L
same,Butanol concentration,[19],0.72 g/L
same,Butanol productivity,[19],0.01 g butanol/L-h
same,Butanol yield,[19],0.01 g butanol/g/glucose
same,Residual glucose concentration,[19],48.9 g/L
same,Butanol concentration,[20],1.41 g/L
same,Butanol productivity,[20],0.01 g butanol/L-h
same,Butanol yield,[20],0.02 g butanol/g/glucose
same,Residual glucose concentration,[20],43.2 g/L
same,Butanol concentration,[21],3.09 g/L
same,Butanol productivity,[21],0.03 g butanol/L-h
same,Butanol yield,[21],0.05 g butanol/g/glucose
same,Residual glucose concentration,[21],41.3 g/L
same,Butanol concentration,[22],7.69 g/L
same,Butanol productivity,[22],0.08 g butanol/L-h
same,Butanol yield,[22],0.13 g butanol/g/glucose
same,Residual glucose concentration,[22],0.5 g/L
same,Butanol concentration,[23],8.72 g/L
same,Butanol productivity,[23],0.09 g butanol/L-h
same,Butanol yield,[23],0.15 g butanol/g/glucose
same,Residual glucose concentration,[23],0.1 g/L
same,Butanol concentration,[24],10.70 g/L
same,Butanol productivity,[24],0.11 g butanol/L-h
same,Butanol yield,[24],0.18 g butanol/g/glucose
same,Residual glucose concentration,[24],0.1 g/L
same,Butanol concentration,[25],5.75 g/L
same,Butanol productivity,[25],0.06 g butanol/L-h
same,Butanol yield,[25],0.10 g butanol/g/glucose
same,Residual glucose concentration,[25],0.1 g/L
same,Butanol concentration,[26],4.54 g/L
same,Butanol productivity,[26],0.05 g butanol/L-h
same,Butanol yield,[26],0.08 g butanol/g/glucose
same,Residual glucose concentration,[26],0.1 g/L
same,Butanol concentration,[27],4.78 g/L
same,Butanol productivity,[27],0.05 g butanol/L-h
same,Butanol yield,[27],0.08 g butanol/g/glucose
same,Residual glucose concentration,[27],0.1 g/L
same,Butanol,"50 nM, transfer 1",1.12 g/L
same,Butanol productivity,[28],0.01 g butanol/L-h
same,Butanol yield,[28],0.02 g butanol/g/glucose
same,Residual glucose concentration,[28],45.5 g/L
same,Butanol,"50 nM, transfer 4",11.53 g/L
same,Butanol productivity,[29],0.12 g butanol/L-h
same,Butanol yield,[29],0.19 g butanol/g/glucose
same,Residual glucose concentration,[29],0.1 g/L
same,Butanol,"50 nM, transfer 7",9.36 g/L
same,Butanol productivity,[30],0.10 g butanol/L-h
same,Butanol yield,[30],0.16 g butanol/g/glucose
same,Residual glucose concentration,[30],0.1 g/L
same,Butanol,"50 nM, transfer 10",13.66 g/L
